Results reported in patent US4900757A, “Hypocholesterolemic and antiatherosclerotic uses of bix(3,5-di-tertiary-butyl-4-hydroxyphenylthio)methane” (Merrell Dow Pharmaceuticals Inc., priority 1988, dated 1990).

Legend:
[1] = system: Watanabe heritable hyperlipidemic (WHHL) rabbit; test: Antiatherosclerotic and hypocholesterolemic effects in the Watanabe Heritable Hyperlipidemic rabbit (Example 2); format: in vivo; conditions: for Aortic Lesions, as a percent of control group / HDL Protein, as a percent of control group / LDL Cholesterol, as a percent of control group / Plasma Cholesterol, as a percent of control group: mean vs respective control group
Description: Divide Watanabe Heritable Hyperlipidemic rabbits (WHHL), 13 to 15 weeks of age, into two treatment groups of 4 to 5 rabbits each. To one treatment group feed standard rabbit chow [Control Group], and to the other group feed standard rabbit chow containing the test compound (1% by weight) [Treatment Group]. In one experiment, probucol is the active treatment [Treatment Group A]. In another experiment, bis(3,5-di-tertiarybutyl-4-hydroxyphenylthio)methane is the active treatment [Treatment Group B].
After 12 weeks of treatment, sacrifice the study animals and take plasma and aorta samples. Determine for each study animal the extent of the atherosclerotic lesions of the aorta by the method of Badimon et al. [Atherosclerosis 61, 57 (1986)]. Determine for each study animal plasma cholesterol concentrations by an enzymatic method using a DACOS analyzer (Coulter Electronics Inc., Hialeah, Florida, USA). Isolate plasma lipoproteins by sequential ultracentrifugation and determine LDL and HDL cholesterol and protein by the method of Mao et al. [Biochemistry 14, 4127 (1975)].

human LDL = test: Inhibition of LDL peroxidation (cupric sulfate, thiobarbituric acid assay; Example 3); conditions: ratio of ID50, in words
mice = conditions: cited from earlier work
LDL [2] = conditions: in vitro; in words; cited from earlier work
WHHL rabbit = conditions: in words; cited from earlier work
LDL [3] = conditions: in words; cited from earlier work
[4] = 1% (w/w) in feed, 12 weeks, in words

Structure (SMILES) | Aortic Lesions, as a percent of control group ([1]; 1% (w/w) in feed, 12 weeks) | HDL Protein, as a percent of control group ([1]; 1% (w/w) in feed, 12 weeks) | LDL Cholesterol, as a percent of control group ([1]; 1% (w/w) in feed, 12 weeks) | Plasma Cholesterol, as a percent of control group ([1]; 1% (w/w) in feed, 12 weeks) | amount of HDL in the blood, as measured by HDL protein [1, 4] | reduction of LDL cholesterol compared with probucol [1, 4] | reduction of aortic lesions compared with probucol [1, 4] | reduction of plasma cholesterol compared with probucol [1, 4] | progression of atherosclerosis in the WHHL rabbit ([1]; in words) | serum cholesterol in the WHHL rabbit ([1]; in words) | effectiveness in inhibiting peroxidation of human LDL relative to probucol (human LDL) | reduction in the blood cholesterol of mice, in words (mice; comparable treatment (to 2 weeks probucol)) | inhibition of oxidative modification of LDL by cupric ions (LDL [2]) | preventing the progression of atherosclerosis in WHHL rabbit (WHHL rabbit) | inhibition of oxidative modification of LDL by endothelial cells (LDL [3]) | reduction in the blood cholesterol of mice (mice; 2 week treatment)
CC(C)(C)c1cc(SCSc2cc(C(C)(C)C)c(O)c(C(C)(C)C)c2)cc(C(C)(C)C)c1O | -38% | +8% | -35% | -20% | increased | to a greater extent than probucol | to a greater extent than probucol | to a greater extent than probucol | prevents the progression of atherosclerosis | reduces serum cholesterol | over twice as effective | no reduction |  |  |  | 
CC(C)(Sc1cc(C(C)(C)C)c(O)c(C(C)(C)C)c1)Sc1cc(C(C)(C)C)c(O)c(C(C)(C)C)c1 [Probucol, 2,2'-bis(3,5-di-tertiary-butyl-4-hydroxyphenylthio)propane, reference compound] | -33% | -21% | -15% | -12% | decreased |  |  |  |  |  |  |  | inhibits the oxidative modification of LDL | effective in preventing the progression of atherosclerosis | inhibits the oxidative modification of LDL | 59%
